Test results as given in ChEMBL document CHEMBL5321200, “Discovery of the GSH responsive "Y-PROTACs" targeting ALK and CDK4/6 as a potential treatment for cancer” (Eur J Med Chem, 2023).
pEC50, pIC50: −log10 of the molar value. Active and inactive are the calls of the source. The rule behind the calls is not given here.

Assays:
[1] = Toxicity in BALB/c nude mouse xenografted with human NCI-H3122 cells assessed as effect on kidney function at 50 mg/kg, IG administered once daily for 18 days by H and E staining based assay; type: organism-based; settings: in vivo, po, 432 h, time 18 day
[2] = Toxicity in BALB/c nude mouse xenografted with human NCI-H3122 cells assessed as effect on heart function at 50 mg/kg, IG administered once daily for 18 days and measured after 12 hrs of last dose by H and E staining based assay; type: organism-based; settings: in vivo, po, 444 h
Mus musculus = assay: In vivo PROTAC activity at CRBN/EML4-ALK in BALB/c nude mouse xenografted with human NCI-H3122 cells assessed as reduction in EML4-ALK protein expression in tumor at 50 mg/kg, IG administered once daily for 18 days and measured after 12 hrs of last dose by immunohistochemical analysis; type: functional, organism-based; settings: time 444.0 hrs
[3] = Toxicity in BALB/c nude mouse xenografted with human NCI-H3122 cells assessed as effect on liver function at 50 mg/kg, IG administered once daily for 18 days by H and E staining based assay; type: organism-based; settings: in vivo, po, 432 h, time 18 day
[4] = Toxicity in BALB/c nude mouse xenografted with human NCI-H3122 cells assessed as tolerance at 25 to 50 mg/kg, IG administered once daily for 18 days; type: organism-based; settings: in vivo, po, 432 h, dose 25-50 mg/kg, time 18 day
NCI-H3122 [5] = assay: Antitumor activity against human NCI-H3122 cells xenografted in BALB/c nude mouse assessed as reduction in tumor volume at 50 mg/kg, IG administered once daily for 18 days and measured after 12 hrs of last dose; type: functional, organism-based; settings: time 444.0 hrs
[6] = biological target: ALK tyrosine kinase receptor (Homo sapiens) (UniProt Q9UM73); assay: Inhibition of ALK (unknown origin) at 0.05 uM by LANCE Ultra TR-FRET assay relative to control
[7] = Toxicity in BALB/c nude mouse xenografted with human NCI-H3122 cells assessed as effect on visceral kidney morphology at 50 mg/kg, IG administered once daily for 18 days and measured after 12 hrs of last dose by H and E staining based assay; type: organism-based; settings: in vivo, po, 444 h
[8] = Toxicity in BALB/c nude mouse xenografted with human NCI-H3122 cells assessed as reduction in body weight at 25 to 50 mg/kg, IG administered once daily for 18 days; type: organism-based; settings: in vivo, po, 432 h, dose 25-50 mg/kg, time 18 day
NCI-H3122 [9] = assay: Antiproliferative activity against human NCI-H3122 cells assessed as inhibition of cell growth incubated for 5 days in presence of 2-(4-(6-((6-acetyl-8-cyclopentyl-5-methyl-7-oxo-7,8-dihydropyrido[2,3-d]pyrimidin-2-yl)amino)pyridin-3-yl)piperazin-1-yl)-N-(2-mercaptoethyl)acetamide by MTT assay; type: functional, cell-based; settings: NCI-H3122, 120 h
[10] = Toxicity in BALB/c nude mouse xenografted with human NCI-H3122 cells assessed as effect on spleen function at 50 mg/kg, IG administered once daily for 18 days by H and E staining based assay; type: organism-based; settings: in vivo, po, 432 h, time 18 day
NCI-H3122 [11] = assay: Antiproliferative activity against human NCI-H3122 cells assessed as inhibition of cell growth incubated for 5 days by MTT assay; type: functional, cell-based; settings: NCI-H3122, 120 h
[12] = biological target: Protein cereblon/ALK tyrosine kinase receptor (Homo sapiens, UniProt Q96SW2+Q9UM73); assay: PROTAC activity at CRBN/ALK in human NCI-H3122 cells assessed as induction of ALK degradation incubated for 24 hrs by Western blot analysis; type: cell-based
[13] = Toxicity in BALB/c nude mouse xenografted with human NCI-H3122 cells assessed as effect on visceral liver morphology at 50 mg/kg, IG administered once daily for 18 days and measured after 12 hrs of last dose by H and E staining based assay; type: organism-based; settings: in vivo, po, 444 h
[14] = Toxicity in BALB/c nude mouse xenografted with human NCI-H3122 cells assessed as effect on visceral heart morphology at 50 mg/kg, IG administered once daily for 18 days and measured after 12 hrs of last dose by H and E staining based assay; type: organism-based; settings: in vivo, po, 444 h
NCI-H3122 [15] = assay: Antitumor activity against human NCI-H3122 cells xenografted in BALB/c nude mouse assessed as reduction in tumor weight at 50 mg/kg, IG administered once daily for 18 days and measured after 12 hrs of last dose; type: functional, organism-based; settings: time 444.0 hrs
[16] = Toxicity in BALB/c nude mouse xenografted with human NCI-H3122 cells assessed as effect on visceral spleen morphology at 50 mg/kg, IG administered once daily for 18 days and measured after 12 hrs of last dose by H and E staining based assay; type: organism-based; settings: in vivo, po, 444 h
[17] = Toxicity in BALB/c nude mouse xenografted with human NCI-H3122 cells assessed as effect on lung function at 50 mg/kg, IG administered once daily for 18 days by H and E staining based assay; type: organism-based; settings: in vivo, po, 432 h, time 18 day
NCI-H3122 [18] = assay: Antitumor activity against human NCI-H3122 cells xenografted in BALB/c nude mouse assessed as tumor growth inhibition at 50 mg/kg, IG administered once daily for 18 days and measured after 12 hrs of last dose relative to control; type: functional; settings: NCI-H3122, po, time 444 hrs, read-out: TGI
[19] = biological target: ALK tyrosine kinase receptor (Homo sapiens) (UniProt Q9UM73); assay: Inhibition of ALK (unknown origin) at 1 uM by LANCE Ultra TR-FRET assay relative to control
[20] = Toxicity in BALB/c nude mouse xenografted with human NCI-H3122 cells assessed as effect on visceral lung morphology at 50 mg/kg, IG administered once daily for 18 days and measured after 12 hrs of last dose by H and E staining based assay; type: organism-based; settings: in vivo, po, 444 h

Sequence of ALK tyrosine kinase receptor (Homo sapiens) (Q9UM73 19-1620 limits assumed): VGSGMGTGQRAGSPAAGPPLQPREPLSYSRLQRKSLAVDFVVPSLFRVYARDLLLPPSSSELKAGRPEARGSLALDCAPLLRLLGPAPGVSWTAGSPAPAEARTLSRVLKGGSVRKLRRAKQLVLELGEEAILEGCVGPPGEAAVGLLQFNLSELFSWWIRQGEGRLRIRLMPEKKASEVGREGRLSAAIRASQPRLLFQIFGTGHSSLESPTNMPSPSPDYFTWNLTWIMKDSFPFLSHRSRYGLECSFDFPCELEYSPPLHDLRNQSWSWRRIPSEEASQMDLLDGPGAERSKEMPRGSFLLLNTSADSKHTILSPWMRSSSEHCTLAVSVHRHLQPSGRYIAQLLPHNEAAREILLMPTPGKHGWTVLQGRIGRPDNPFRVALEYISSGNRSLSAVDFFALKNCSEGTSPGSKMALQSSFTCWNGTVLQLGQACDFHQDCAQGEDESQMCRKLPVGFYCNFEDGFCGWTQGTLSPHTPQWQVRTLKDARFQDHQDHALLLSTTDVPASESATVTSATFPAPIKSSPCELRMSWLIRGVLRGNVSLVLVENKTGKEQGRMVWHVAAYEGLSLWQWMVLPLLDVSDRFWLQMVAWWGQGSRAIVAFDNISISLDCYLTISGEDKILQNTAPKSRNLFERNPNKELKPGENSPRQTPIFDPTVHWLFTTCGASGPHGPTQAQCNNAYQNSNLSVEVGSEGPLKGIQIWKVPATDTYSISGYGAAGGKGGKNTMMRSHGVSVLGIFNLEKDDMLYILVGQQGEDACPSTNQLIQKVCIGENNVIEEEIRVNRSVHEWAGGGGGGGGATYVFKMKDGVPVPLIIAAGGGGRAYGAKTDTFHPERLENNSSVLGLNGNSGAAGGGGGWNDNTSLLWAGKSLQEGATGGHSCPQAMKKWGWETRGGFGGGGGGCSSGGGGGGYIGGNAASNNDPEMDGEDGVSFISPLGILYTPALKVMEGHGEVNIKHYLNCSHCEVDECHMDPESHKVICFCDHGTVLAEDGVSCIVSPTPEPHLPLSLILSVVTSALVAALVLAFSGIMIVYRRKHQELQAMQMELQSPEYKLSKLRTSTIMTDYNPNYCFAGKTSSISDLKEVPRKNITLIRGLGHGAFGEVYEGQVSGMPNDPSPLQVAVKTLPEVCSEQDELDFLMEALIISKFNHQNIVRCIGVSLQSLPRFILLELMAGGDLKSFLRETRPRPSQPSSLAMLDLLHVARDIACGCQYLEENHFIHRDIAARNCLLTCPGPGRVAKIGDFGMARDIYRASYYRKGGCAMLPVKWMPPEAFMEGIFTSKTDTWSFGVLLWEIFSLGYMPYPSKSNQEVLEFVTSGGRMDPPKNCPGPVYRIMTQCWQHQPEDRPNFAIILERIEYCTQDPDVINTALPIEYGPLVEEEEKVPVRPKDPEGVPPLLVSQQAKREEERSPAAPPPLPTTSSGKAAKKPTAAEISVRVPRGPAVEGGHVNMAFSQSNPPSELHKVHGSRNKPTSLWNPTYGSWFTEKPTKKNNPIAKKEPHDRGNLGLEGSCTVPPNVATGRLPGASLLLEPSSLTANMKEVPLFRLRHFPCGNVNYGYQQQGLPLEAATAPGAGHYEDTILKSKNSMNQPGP
Sequence of Protein cereblon/ALK tyrosine kinase receptor (Q9UM73 whole entry): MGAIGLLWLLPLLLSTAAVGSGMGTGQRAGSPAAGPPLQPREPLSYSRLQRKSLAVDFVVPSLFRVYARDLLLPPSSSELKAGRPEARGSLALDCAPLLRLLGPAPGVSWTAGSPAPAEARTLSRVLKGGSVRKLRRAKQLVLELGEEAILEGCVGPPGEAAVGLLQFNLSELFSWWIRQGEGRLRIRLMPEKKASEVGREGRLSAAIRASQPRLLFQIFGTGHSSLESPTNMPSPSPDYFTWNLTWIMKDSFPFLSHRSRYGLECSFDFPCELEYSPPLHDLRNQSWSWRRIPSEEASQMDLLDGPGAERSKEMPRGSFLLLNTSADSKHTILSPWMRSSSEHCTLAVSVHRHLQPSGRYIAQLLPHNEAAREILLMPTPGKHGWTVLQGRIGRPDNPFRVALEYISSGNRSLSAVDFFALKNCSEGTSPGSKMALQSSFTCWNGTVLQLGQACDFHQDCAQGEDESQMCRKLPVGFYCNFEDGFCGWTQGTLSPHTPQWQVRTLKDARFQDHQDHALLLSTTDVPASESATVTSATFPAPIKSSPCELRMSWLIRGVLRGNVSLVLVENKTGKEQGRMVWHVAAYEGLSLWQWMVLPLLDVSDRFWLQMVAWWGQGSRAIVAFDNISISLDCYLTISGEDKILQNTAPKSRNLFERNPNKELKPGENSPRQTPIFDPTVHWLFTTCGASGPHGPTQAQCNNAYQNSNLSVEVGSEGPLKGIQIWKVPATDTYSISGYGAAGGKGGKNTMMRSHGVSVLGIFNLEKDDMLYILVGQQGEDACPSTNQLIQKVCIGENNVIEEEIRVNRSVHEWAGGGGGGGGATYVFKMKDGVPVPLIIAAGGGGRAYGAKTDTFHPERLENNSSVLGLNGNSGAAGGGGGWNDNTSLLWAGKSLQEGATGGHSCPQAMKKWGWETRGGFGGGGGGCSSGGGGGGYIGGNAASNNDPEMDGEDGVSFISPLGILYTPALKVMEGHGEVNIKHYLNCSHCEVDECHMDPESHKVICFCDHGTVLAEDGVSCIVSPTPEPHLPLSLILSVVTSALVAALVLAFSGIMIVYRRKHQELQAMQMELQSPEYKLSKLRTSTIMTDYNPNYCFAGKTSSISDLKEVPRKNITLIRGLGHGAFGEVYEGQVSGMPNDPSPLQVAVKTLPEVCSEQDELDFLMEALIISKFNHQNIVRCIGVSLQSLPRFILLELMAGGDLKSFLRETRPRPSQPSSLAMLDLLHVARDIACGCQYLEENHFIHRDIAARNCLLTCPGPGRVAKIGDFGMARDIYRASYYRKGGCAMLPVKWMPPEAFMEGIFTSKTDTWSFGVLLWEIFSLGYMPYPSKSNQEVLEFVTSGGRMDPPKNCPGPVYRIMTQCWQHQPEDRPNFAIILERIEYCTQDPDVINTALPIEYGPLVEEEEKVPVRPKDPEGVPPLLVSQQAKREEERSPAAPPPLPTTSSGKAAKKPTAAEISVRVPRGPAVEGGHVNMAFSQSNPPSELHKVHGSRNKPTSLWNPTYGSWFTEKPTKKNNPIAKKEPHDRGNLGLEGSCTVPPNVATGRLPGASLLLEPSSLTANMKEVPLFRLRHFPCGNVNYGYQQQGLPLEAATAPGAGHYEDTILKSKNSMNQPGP
Sequence of Protein cereblon/ALK tyrosine kinase receptor (Q96SW2 whole entry): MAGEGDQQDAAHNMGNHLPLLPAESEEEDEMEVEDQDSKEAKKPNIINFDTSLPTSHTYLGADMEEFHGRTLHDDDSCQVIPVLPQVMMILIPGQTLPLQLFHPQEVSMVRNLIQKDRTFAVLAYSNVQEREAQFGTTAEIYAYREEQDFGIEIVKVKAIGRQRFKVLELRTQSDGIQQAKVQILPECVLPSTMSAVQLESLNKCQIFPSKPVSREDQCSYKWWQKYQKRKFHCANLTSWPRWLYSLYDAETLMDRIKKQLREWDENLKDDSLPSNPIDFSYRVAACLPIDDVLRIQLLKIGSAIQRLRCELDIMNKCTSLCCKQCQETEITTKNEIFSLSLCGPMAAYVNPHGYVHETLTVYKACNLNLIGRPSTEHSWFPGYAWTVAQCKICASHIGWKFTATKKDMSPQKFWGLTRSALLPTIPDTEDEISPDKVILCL

inhibition [6]: 82.2%
pIC50 (NCI-H3122 [9]): 6.72
pIC50 (NCI-H3122 [11]): 6.42
pEC50 [12]: 6.16
inhibition [19]: 93%
SMILES: Cc1cc(Nc2ncc(Cl)c(Nc3ccccc3S(=O)(=O)C(C)C)n2)c(OC(C)C)cc1C1CCN(C(=O)CCCCCCC(=O)N(CCS)CC(=O)NCCNc2cccc3c2C(=O)N(C2CCC(=O)NC2=O)C3=O)CC1 (stereo unspecified)
Activity [1]: Non-Toxic
Activity [2]: Non-Toxic
Activity (Mus musculus): Active
Activity [3]: Non-Toxic
Activity [4]: Non-Toxic
Activity (NCI-H3122 [5]): Active
Activity [7]: Non-Toxic
Activity [8]: Non-Toxic
Activity [10]: Non-Toxic
Activity [13]: Non-Toxic
Activity [14]: Non-Toxic
Activity (NCI-H3122 [15]): Active
Activity [16]: Non-Toxic
Activity [17]: Non-Toxic
inhibition in vivo at 50 mg/kg (NCI-H3122 [18]): 51.1%
Activity [20]: Non-Toxic
